According to the NIST ThermoML archive (doi:10.1016/j.jct.2014.03.005):
“And” between values parts separate entries of the source, which are not always exact repeats. Equal entries are not always repeated.

Key:
[1] = Molar enthalpy of transition or fusion; settings: Crystal; DSC
[2] = Crystal; for vapor or sublimation pressure: Calculated from knudsen effusion weight loss; for Normal melting temperature: DTA
[3] = molar enthalpy of vaporization or sublimation; settings: 298.15 K; Crystal; Static calorimetry

Nc1ccc2c(c1)Cc1ccccc1-2 [2-aminofluorene]
Settings	Molar enthalpy of transition or fusion [kcal/mol]	Normal melting temperature [°C]	molar enthalpy [kcal/mol]
[1]	5.69	–	–
[2]	–	127.79	–
[3]	–	–	26.4

[2]
Settings	vapor or sublimation pressure
345.16 K	0.000121 kPa and 0.00012 kPa and 0.000118 kPa
347.13 K	0.000155 kPa and 0.000154 kPa and 0.000148 kPa
349.17 K	0.000189 kPa and 0.000182 kPa and 0.00019 kPa
351.15 K	0.000238 kPa and 0.000226 kPa
353.1 K	0.000286 kPa and 0.000283 kPa and 0.000291 kPa
355.17 K	0.00035 kPa and 0.000348 kPa and 0.000362 kPa
357.13 K	0.000447 kPa and 0.000436 kPa and 0.000432 kPa
359.16 K	0.000546 kPa and 0.000522 kPa and 0.000551 kPa
361.13 K	0.000675 kPa and 0.000647 kPa and 0.000664 kPa
363.1 K	0.000811 kPa and 0.000789 kPa and 0.000805 kPa
365.09 K	0.000994 kPa and 0.000997 kPa and 0.000981 kPa

O=[N+]([O-])c1ccc2c(c1)Cc1ccccc1-2 [2-nitro-9H-fluorene]
Settings	Molar enthalpy of transition or fusion [kcal/mol]	Normal melting temperature [°C]	molar enthalpy [kcal/mol]
[1]	5.92	–	–
[2]	–	156.74	–
[3]	–	–	27.3

[2]
Settings	vapor or sublimation pressure
357.16 K	9e-05 kPa and 9.2e-05 kPa
359.13 K	0.000115 kPa and 0.000114 kPa and 0.000111 kPa
361.11 K	0.000141 kPa and 0.000139 kPa and 0.00014 kPa
363.16 K	0.000172 kPa and 0.00017 kPa
365.14 K	0.000217 kPa and 0.000209 kPa and 0.000213 kPa
367.11 K	0.000261 kPa and 0.000258 kPa
369.16 K	0.000315 kPa and 0.000322 kPa
371.13 K	0.000398 kPa and 0.000377 kPa and 0.000392 kPa
373.1 K	0.000478 kPa and 0.000472 kPa and 0.000474 kPa
375.15 K	0.000565 kPa and 0.000561 kPa and 0.000578 kPa
377.14 K	0.000696 kPa and 0.000707 kPa and 0.000678 kPa
379.12 K	0.000839 kPa and 0.000844 kPa and 0.000829 kPa
